Experimental data: US10835533B2, “1 -((3S,4R)-4-(3-fluorophenyl)-1-(2-methoxyethyl)pyrrolidin-3-yl)-3-(4-methyl-3-(2-methylpyrimidin-5-yl)-1-phenyl-1H-pyrazol-5-yl)urea as a TrkA kinase inhibitor” (Array BioPharma Inc., priority 2014, dated 2020)

Legend:
Assay in all cases: KinaseProfiler kinase profiling
Assay type in all cases: biochemical
Details in all cases: 10 μM, ATP near Km
[1] = molecular target: T1, AKT1 (Homo sapiens, UniProt P31749)
T1 construct: purchased Millipore, Inc. (KinaseProfiler service)
Description: (§1) Compound 1 was tested for off-target kinase activity at a concentration of 10 μM by Millipore, Inc. in their KinaseProfiler™ service against all the kinases available in their full kinase panel. Compound 1 was run in duplicate at a concentration of ATP near the Km for each individual kinase according to Millipore's specifications. Data are reported as percent of control (POC) and are the average of the two replicates.

[2] = molecular target: T2, ALK (Homo sapiens, UniProt Q9UM73)
T2 construct: purchased Millipore, Inc. (KinaseProfiler service)
Description: as §1

[3] = molecular target: T3, Abl2 (Homo sapiens, UniProt P42684)
T3 construct: purchased Millipore, Inc. (KinaseProfiler service)
Description: as §1

[4] = molecular target: T4, BLK (Homo sapiens, UniProt P51451)
T4 construct: purchased Millipore, Inc. (KinaseProfiler service)
Description: as §1

[5] = molecular target: T5, BrSK1 (Homo sapiens, UniProt Q8TDC3)
T5 construct: purchased Millipore, Inc. (KinaseProfiler service)
Description: as §1

[6] = molecular target: T6, BrSK2 (Homo sapiens, UniProt Q8IWQ3)
T6 construct: purchased Millipore, Inc. (KinaseProfiler service)
Description: as §1

[7] = molecular target: T7, DDR2 (Homo sapiens, UniProt Q16832)
T7 construct: purchased Millipore, Inc. (KinaseProfiler service)
Description: as §1

[8] = molecular target: T8, FAK (Homo sapiens, UniProt Q05397)
T8 construct: purchased Millipore, Inc. (KinaseProfiler service)
Description: as §1

[9] = molecular target: T9, FAK2 (Homo sapiens, UniProt Q14289)
T9 construct: purchased Millipore, Inc. (KinaseProfiler service)
Description: as §1

[10] = molecular target: T10, Fgr (Homo sapiens, UniProt P09769)
T10 construct: purchased Millipore, Inc. (KinaseProfiler service)
Description: as §1

[11] = molecular target: T11, Fms (Homo sapiens, UniProt P07333)
T11 construct: purchased Millipore, Inc. (KinaseProfiler service)
Description: as §1

[12] = molecular target: T12, GRK6 (Homo sapiens, UniProt P43250)
T12 construct: purchased Millipore, Inc. (KinaseProfiler service)
Description: as §1

[13] = molecular target: T13, HIPK1 (Homo sapiens, UniProt Q86Z02)
T13 construct: purchased Millipore, Inc. (KinaseProfiler service)
Description: as §1

[14] = molecular target: T14, IGF-1R (Homo sapiens, UniProt P08069)
T14 construct: purchased Millipore, Inc. (KinaseProfiler service)
Description: as §1

[15] = molecular target: T15, IR Activated (Homo sapiens, UniProt P06213)
T15 construct: purchased Millipore, Inc. (KinaseProfiler service)
Description: as §1

[16] = molecular target: T16, JNK1alpha1 (Homo sapiens, UniProt P45983)
T16 construct: purchased Millipore, Inc. (KinaseProfiler service)
Description: as §1

[17] = molecular target: T17, JNK2alpha2 (Homo sapiens, UniProt P45984)
T17 construct: purchased Millipore, Inc. (KinaseProfiler service)
Description: as §1

[18] = molecular target: T18, MAP3K5 (Homo sapiens, UniProt Q99683)
T18 construct: purchased Millipore, Inc. (KinaseProfiler service)
Description: as §1

[19] = molecular target: T19, MAPKAP-K5 (Homo sapiens, UniProt Q8IW41)
T19 construct: purchased Millipore, Inc. (KinaseProfiler service)
Description: as §1

[20] = molecular target: T20, MARK1 (Homo sapiens, UniProt Q9P0L2)
T20 construct: purchased Millipore, Inc. (KinaseProfiler service)
Description: as §1

[21] = molecular target: T21, MKK4_m (Mus musculus, UniProt P47809)
T21 construct: purchased Millipore, Inc. (KinaseProfiler service)
Description: as §1

[22] = molecular target: T22, MLK1 (Homo sapiens, UniProt P80192)
T22 construct: purchased Millipore, Inc. (KinaseProfiler service)
Description: as §1

[23] = molecular target: T23, MSK1 (Homo sapiens, UniProt O75582)
T23 construct: purchased Millipore, Inc. (KinaseProfiler service)
Description: as §1

[24] = molecular target: T24, Mer (Homo sapiens, UniProt Q12866)
T24 construct: purchased Millipore, Inc. (KinaseProfiler service)
Description: as §1

[25] = molecular target: T25, MuSK (Homo sapiens, UniProt O15146)
T25 construct: purchased Millipore, Inc. (KinaseProfiler service)
Description: as §1

[26] = molecular target: T26, PAK2 (Homo sapiens, UniProt Q13177)
T26 construct: purchased Millipore, Inc. (KinaseProfiler service)
Description: as §1

[27] = molecular target: T27, PDK1 (Homo sapiens, UniProt O15530)
T27 construct: purchased Millipore, Inc. (KinaseProfiler service)
Description: as §1

[28] = molecular target: T28, PKD1 (Homo sapiens, UniProt Q15139)
T28 construct: purchased Millipore, Inc. (KinaseProfiler service)
Description: as §1

[29] = molecular target: T29, PRKG1alpha (Homo sapiens, UniProt Q13976)
T29 construct: purchased Millipore, Inc. (KinaseProfiler service)
Description: as §1

[30] = molecular target: T30, Ros (Homo sapiens, UniProt P08922)
T30 construct: purchased Millipore, Inc. (KinaseProfiler service)
Description: as §1

[31] = molecular target: T31, SIK (Homo sapiens, UniProt P57059)
T31 construct: purchased Millipore, Inc. (KinaseProfiler service)
Description: as §1

[32] = molecular target: T32, TAO2 (Homo sapiens, UniProt Q9UL54)
T32 construct: purchased Millipore, Inc. (KinaseProfiler service)
Description: as §1

[33] = molecular target: T33, TSSK2 (Homo sapiens, UniProt Q96PF2)
T33 construct: purchased Millipore, Inc. (KinaseProfiler service)
Description: as §1

[34] = molecular target: T34, TrkA (Homo sapiens, UniProt P04629)
T34 construct: purchased Millipore, Inc. (KinaseProfiler service)
Description: as §1

[35] = molecular target: T35, TrkB (Homo sapiens, UniProt Q16620)
T35 construct: purchased Millipore, Inc. (KinaseProfiler service)
Description: as §1

[36] = molecular target: T36, Txk (Homo sapiens, UniProt P42681)
T36 construct: purchased Millipore, Inc. (KinaseProfiler service)
Description: as §1

[37] = molecular target: T37, ULK3 (Homo sapiens, UniProt Q6PHR2)
T37 construct: purchased Millipore, Inc. (KinaseProfiler service)
Description: as §1

[38] = molecular target: T38, ZAP-70 (Homo sapiens, UniProt P43403)
T38 construct: purchased Millipore, Inc. (KinaseProfiler service)
Description: as §1

[39] = molecular target: T39, c-RAF (Homo sapiens, UniProt P04049)
T39 construct: purchased Millipore, Inc. (KinaseProfiler service)
Description: as §1

[40] = molecular target: T40, mTOR (Homo sapiens, UniProt P42345)
T40 construct: purchased Millipore, Inc. (KinaseProfiler service)
Description: as §1

[41] = molecular target: T41, p38beta (Homo sapiens, UniProt Q15759)
T41 construct: purchased Millipore, Inc. (KinaseProfiler service)
Description: as §1

T19 sequence (Q8IW41 whole entry): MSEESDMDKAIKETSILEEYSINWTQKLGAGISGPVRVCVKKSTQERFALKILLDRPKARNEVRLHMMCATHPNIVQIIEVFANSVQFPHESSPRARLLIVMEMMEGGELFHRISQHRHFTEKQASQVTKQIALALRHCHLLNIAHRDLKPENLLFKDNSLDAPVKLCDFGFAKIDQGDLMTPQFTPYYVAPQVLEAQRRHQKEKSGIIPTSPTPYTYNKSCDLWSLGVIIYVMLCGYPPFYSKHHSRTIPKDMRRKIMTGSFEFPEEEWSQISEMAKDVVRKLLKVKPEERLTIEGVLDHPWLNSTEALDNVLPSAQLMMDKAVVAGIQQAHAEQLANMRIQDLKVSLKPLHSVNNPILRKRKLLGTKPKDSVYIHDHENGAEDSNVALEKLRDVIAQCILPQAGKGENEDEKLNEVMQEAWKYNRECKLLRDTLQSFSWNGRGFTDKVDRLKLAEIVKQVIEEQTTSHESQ
T36 sequence (P42681 whole entry): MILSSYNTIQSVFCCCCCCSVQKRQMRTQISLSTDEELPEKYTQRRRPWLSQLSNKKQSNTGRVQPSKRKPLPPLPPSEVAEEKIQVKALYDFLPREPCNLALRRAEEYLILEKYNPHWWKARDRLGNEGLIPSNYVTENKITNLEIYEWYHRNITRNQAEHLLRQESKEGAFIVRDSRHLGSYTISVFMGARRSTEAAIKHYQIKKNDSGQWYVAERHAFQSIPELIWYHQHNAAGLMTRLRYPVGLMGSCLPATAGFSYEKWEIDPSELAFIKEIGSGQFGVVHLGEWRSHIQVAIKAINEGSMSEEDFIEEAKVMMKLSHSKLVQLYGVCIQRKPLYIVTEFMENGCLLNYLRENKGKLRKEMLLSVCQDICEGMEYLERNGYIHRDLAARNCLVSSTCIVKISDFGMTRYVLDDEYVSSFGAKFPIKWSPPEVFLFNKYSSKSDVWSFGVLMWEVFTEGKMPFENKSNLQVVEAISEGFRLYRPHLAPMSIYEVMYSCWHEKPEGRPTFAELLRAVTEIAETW
T31 sequence (P57059 whole entry): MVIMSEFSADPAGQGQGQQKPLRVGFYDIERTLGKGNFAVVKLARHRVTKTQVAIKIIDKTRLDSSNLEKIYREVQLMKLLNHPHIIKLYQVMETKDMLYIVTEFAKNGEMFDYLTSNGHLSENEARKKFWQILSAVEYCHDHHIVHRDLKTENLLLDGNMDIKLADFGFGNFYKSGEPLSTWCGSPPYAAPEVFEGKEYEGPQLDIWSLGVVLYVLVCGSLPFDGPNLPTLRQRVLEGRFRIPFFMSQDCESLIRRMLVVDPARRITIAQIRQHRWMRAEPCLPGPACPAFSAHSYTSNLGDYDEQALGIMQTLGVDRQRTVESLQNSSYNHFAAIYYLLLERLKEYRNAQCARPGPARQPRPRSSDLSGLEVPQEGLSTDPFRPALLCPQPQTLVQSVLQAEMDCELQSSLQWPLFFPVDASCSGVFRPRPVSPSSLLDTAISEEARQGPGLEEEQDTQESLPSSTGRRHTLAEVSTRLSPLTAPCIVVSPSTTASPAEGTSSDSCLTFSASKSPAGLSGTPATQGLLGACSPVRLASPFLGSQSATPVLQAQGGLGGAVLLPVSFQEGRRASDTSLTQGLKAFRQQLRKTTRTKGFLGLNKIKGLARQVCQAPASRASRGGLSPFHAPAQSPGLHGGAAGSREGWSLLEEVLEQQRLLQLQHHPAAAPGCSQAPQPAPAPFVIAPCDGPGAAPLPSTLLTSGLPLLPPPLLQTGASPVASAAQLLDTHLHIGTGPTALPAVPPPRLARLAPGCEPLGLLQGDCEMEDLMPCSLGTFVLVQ
T1 sequence (P31749 whole entry): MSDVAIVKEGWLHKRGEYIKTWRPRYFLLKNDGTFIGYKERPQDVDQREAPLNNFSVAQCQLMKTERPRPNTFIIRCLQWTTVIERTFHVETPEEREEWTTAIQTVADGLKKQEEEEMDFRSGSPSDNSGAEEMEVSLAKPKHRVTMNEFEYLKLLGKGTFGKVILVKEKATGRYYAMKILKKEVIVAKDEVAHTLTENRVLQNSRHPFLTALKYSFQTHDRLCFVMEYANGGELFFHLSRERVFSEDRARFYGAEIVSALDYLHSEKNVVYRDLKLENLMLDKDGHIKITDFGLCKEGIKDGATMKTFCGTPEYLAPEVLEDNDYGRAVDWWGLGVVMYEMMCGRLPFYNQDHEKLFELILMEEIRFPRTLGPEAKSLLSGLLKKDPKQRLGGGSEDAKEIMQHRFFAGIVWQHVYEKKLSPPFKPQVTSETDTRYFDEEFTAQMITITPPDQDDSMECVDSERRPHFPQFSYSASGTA
T27 sequence (O15530 whole entry): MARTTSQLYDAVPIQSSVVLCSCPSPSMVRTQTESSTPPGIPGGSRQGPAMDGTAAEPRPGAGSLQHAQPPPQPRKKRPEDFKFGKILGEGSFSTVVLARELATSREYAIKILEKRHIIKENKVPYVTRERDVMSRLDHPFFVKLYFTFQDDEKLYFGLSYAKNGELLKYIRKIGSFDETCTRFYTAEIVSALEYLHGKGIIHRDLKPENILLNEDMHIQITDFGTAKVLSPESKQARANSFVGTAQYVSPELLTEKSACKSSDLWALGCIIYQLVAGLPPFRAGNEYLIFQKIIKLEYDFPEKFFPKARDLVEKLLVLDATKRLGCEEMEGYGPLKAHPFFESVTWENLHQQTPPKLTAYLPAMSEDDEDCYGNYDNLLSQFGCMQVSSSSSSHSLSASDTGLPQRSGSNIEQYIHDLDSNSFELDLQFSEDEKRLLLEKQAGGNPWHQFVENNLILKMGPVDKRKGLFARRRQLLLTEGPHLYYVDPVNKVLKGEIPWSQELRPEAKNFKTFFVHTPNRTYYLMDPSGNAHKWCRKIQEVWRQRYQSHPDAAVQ
T8 sequence (Q05397 whole entry): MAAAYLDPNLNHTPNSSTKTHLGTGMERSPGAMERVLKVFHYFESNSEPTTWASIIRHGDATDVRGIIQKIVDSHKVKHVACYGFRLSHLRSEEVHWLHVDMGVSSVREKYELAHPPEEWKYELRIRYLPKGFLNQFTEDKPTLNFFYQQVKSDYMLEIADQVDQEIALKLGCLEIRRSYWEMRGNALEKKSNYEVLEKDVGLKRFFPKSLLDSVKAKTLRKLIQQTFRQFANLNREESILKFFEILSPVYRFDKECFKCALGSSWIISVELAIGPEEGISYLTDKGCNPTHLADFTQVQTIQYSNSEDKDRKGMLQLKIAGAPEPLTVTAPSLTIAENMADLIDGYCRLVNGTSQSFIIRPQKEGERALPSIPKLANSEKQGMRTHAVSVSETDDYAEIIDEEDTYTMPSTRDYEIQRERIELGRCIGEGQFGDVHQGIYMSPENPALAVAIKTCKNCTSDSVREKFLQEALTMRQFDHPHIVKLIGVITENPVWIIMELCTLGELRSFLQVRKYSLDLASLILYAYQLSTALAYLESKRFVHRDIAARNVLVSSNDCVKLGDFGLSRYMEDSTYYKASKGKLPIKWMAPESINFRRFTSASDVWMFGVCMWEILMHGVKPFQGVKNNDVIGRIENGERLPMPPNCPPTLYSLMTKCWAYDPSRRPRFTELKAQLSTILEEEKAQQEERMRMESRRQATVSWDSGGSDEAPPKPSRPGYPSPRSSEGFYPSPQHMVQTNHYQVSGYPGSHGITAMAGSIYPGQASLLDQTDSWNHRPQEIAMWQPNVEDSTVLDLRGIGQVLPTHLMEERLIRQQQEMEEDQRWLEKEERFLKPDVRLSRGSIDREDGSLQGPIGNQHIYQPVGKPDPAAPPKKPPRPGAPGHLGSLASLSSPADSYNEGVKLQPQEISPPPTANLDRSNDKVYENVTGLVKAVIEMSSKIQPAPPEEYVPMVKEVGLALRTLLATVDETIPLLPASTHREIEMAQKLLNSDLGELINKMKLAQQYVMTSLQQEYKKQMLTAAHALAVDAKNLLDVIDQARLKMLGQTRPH
T12 sequence (P43250 whole entry): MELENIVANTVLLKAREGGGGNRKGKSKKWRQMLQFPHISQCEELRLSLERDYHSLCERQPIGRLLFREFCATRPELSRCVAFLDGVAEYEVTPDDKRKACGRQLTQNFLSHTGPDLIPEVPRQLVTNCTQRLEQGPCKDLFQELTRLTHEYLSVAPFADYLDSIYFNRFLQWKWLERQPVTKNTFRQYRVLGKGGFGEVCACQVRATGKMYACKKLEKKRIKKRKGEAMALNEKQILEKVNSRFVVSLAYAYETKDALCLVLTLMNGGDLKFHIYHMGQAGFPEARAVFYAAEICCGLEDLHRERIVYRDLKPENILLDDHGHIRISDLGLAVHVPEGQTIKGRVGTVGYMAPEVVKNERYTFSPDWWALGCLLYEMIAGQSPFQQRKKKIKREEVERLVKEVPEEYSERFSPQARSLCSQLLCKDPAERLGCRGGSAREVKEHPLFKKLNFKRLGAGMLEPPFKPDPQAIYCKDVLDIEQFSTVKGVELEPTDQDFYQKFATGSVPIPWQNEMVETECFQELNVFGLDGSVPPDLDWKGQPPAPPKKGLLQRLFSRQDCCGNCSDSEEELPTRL
T41 sequence (Q15759 whole entry): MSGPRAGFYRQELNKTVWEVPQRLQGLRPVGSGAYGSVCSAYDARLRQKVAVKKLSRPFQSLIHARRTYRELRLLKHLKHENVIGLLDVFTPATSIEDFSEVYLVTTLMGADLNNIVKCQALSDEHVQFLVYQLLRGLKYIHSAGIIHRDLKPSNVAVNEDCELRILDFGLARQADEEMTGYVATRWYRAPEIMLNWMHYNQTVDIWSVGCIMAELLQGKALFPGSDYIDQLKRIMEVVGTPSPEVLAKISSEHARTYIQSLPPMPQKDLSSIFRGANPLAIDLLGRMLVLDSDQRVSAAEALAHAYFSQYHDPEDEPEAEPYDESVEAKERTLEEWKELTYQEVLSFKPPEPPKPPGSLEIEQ

Question: Which results are given for `COCCN1C[C@@H](NC(=O)Nc2c(C)c(-c3cnc(C)nc3)nn2-c2ccccc2)[C@H](c2cccc(F)c2)C1` [Compound 1, 1-((3S,4R)-4-(3-fluorophenyl)-1-(2-methoxyethyl)pyrrolidin-3-yl)-3-(4-methyl-3-(2-methylpyrimidin-5-yl)-1-phenyl-1H-pyrazol-5-yl)urea]?
Answer: Avg POC [1]: 104 POC; Avg POC [2]: 89 POC; Avg POC [3]: 110.5 POC; Avg POC [4]: 82.5 POC; Avg POC [5]: 98 POC; Avg POC [6]: 104 POC; Avg POC [7]: 121.5 POC; Avg POC [8]: 100.5 POC; Avg POC [9]: 92.5 POC; Avg POC [10]: 106 POC; Avg POC [11]: 103 POC; Avg POC [12]: 98 POC; Avg POC [13]: 98.5 POC; Avg POC [14]: 80.5 POC; Avg POC [15]: 105.5 POC; Avg POC [16]: 95 POC; Avg POC [17]: 98.5 POC; Avg POC [18]: 101 POC; Avg POC [19]: 89.5 POC; Avg POC [20]: 100 POC; Avg POC [21]: 125 POC; Avg POC [22]: 109.5 POC; Avg POC [23]: 129 POC; Avg POC [24]: 147.5 POC; Avg POC [25]: 95 POC; Avg POC [26]: 105.5 POC; Avg POC [27]: 104 POC; Avg POC [28]: 94.5 POC; Avg POC [29]: 109.5 POC; Avg POC [30]: 112.5 POC; Avg POC [31]: 108 POC; Avg POC [32]: 100 POC; Avg POC [33]: 108.5 POC; Avg POC [34]: 2.5 POC; Avg POC [35]: 1.5 POC; Avg POC [36]: 67 POC; Avg POC [37]: 107.5 POC; Avg POC [38]: 104.5 POC; Avg POC [39]: 101 POC; Avg POC [40]: 97.5 POC; Avg POC [41]: 102 POC
